From ChEMBL document CHEMBL4376829, “Discovery and biological evaluation of vinylsulfonamide derivatives as highly potent, covalent TEAD autopalmitoylation inhibitors” (Eur J Med Chem, 2019) come the findings set out here.

Assay [1] has as its target T1, Transcriptional enhancer factor TEF-3 (Homo sapiens, UniProt Q15561). The assay can be described thus: Inhibition of N-terminal His6 tagged human TEAD4-YBD (217 to 434 residues) expressed in Escherichia coli C43 (DE3) cells assessed as reduction in autopalmitoylation at 800 nM preincubated for 2 hrs followed by palmitoyl alkyne-coenzyme A addition and measured after 30 mins by immunoblot analysis relative to control.

Assay [2] deals with T1, Transcriptional enhancer factor TEF-3. The assay can be described thus: Inhibition of N-terminal His6 tagged human TEAD4-YBD (217 to 434 residues) expressed in Escherichia coli C43 (DE3) cells assessed as reduction in autopalmitoylation preincubated for 2 hrs followed by palmitoyl alkyne-coenzyme A addition and measured after 30 mins by immunoblot analysis.
Assay [3] shares this target. As to the kind of experiment: Inhibition of N-terminal His6-tagged human TEAD4-YBD (217 to 434 residues) expressed in Escherichia coli C43 (DE3) cells at 50 to 1000 nM preincubated for 2 hrs followed by palmitoyl alkyne-coenzyme A addition and measured after 30 mins in presence of BSA by immunoblot analysis.
The species entered for assay [4] is Homo sapiens. The assay can be described thus: Inhibition of TEAD (unknown origin) expresssed in HEK293T cells assessed as reduction in luciferase activity at 10 to 20 uM by dual-luciferase reporter gene assay. Type of assay: cell-based.
Assay [5] concerns TGF-beta receptor type-1 (Homo sapiens), P36897 [T204D]. The assay can be described thus: Inhibition of recombinant human TGFBR1 T204D mutant (200 to end residues) at 10 uM using casein as substrate measured after 40 mins in presence of [gamm33P]ATP by scintillation counting method relative to control.
In assay [6] the target is Serine/threonine-protein kinase STK11 (Homo sapiens) (UniProt Q15831). The assay can be described thus: Inhibition of recombinant full-length human LKB1 at 10 uM using LSNLYHQGKFLQTFCGSPLYRRR as substrate measured after 40 mins in presence of [gamm33P]ATP by scintillation counting method relative to control.
Assay [7] has as its target Tyrosine-protein kinase JAK1 (Homo sapiens) (UniProt P23458). As to the kind of experiment: Inhibition of recombinant human JAK1 (866 to end residues) at 10 uM using GEEPLYWSFPAKK as substrate measured after 40 mins in presence of [gamm33P]ATP by scintillation counting method relative to control.
The target in assay [8] is Insulin receptor-related protein (Homo sapiens) (UniProt P14616). As to the kind of experiment: Inhibition of recombinant human IRR (943 to 1266 residues) at 10 uM using myelin basic protein as substrate measured after 40 mins in presence of [gamma33P]ATP by scintillation counting method relative to control.
In assay [9] the target is Proto-oncogene tyrosine-protein kinase Src (Homo sapiens) (UniProt P12931). The assay can be described thus: Inhibition of recombinant human Src (1 to 530 residues) at 10 uM using GGEEEEYFELVKKKK as substrate measured after 40 mins in presence of [gamma33P]ATP by scintillation counting method relative to control.
The target of assay [10] is Receptor-interacting serine/threonine-protein kinase 2 (Homo sapiens) (UniProt O43353). As to the kind of experiment: Inhibition of human RIPK2 (1 to 299 residues) at 10 uM using MBP as substrate measured after 120 mins in presence of [gamma33P]ATP by scintillation counting method relative to control.
For assay [11], the target named is Insulin receptor (Homo sapiens) (UniProt P06213). As to the kind of experiment: Inhibition of recombinant human IR (1005 to 1310 residues) at 10 uM using KKSRGDYMTMQIG as substrate after 40 mins in presence of [gamma33P]ATP by scintillation counting method relative to control.
For assay [12], the target named is Insulin-like growth factor 1 receptor (Homo sapiens) (UniProt P08069). The assay can be described thus: Inhibition of recombinant human IGF1R activated (959 to end residues) at 10 uM using KKKSPGEYVNIEF as substrate after 40 mins in presence of [gamma33P]ATP by scintillation counting method relative to control.
For assay [13], the system named is Phosphorylase b kinase gamma catalytic chain, liver/testis isoform (Homo sapiens), P15735 [F290L]. The assay can be described thus: Inhibition of recombinant human PhKgamma2 F290L mutant (1 to 301 residues) at 10 uM using KKLNRTLSFAEPG as substrate measured after 40 mins in presence of [gamma33P]ATP by scintillation counting method relative to control.
Assay [14] deals with Serine/threonine-protein kinase PAK 1 (Homo sapiens) (UniProt Q13153). The assay can be described thus: Inhibition of recombinant human PAK1 (150 to end residues) at 10 uM using RRRLSFAEPG as substrate measured after 40 mins in presence of [gamma33P]ATP by scintillation counting method relative to control.
The target of assay [15] is Serine/threonine-protein kinase NLK (Homo sapiens) (UniProt Q9UBE8). As to the kind of experiment: Inhibition of recombinant human NLK (121 to end residues) at 10 uM using myelin basic protein as substrate measured after 40 mins in presence of [gamma33P]ATP by scintillation counting method relative to control.
The target in assay [16] is CDK12/Cyclin K (Homo sapiens) (UniProt O75909+Q9NYV4). The assay can be described thus: Inhibition of full-length recombinant human CDK12/cyclinK at 10 uM using RSRSRSRSRSRSRSR as substrate after 40 mins by in presence of [gamma33P]ATP by scintillation counting method relative to control. Type of assay: protein-complex assay.
The target in assay [17] is CDC7/Cyclin B1 (Homo sapiens) (UniProt P14635+O00311). The assay can be described thus: Inhibition of full-length recombinant human Cdc7/CyclinB1 at 10 uM using histone H1 as substrate after 120 mins by in presence of [gamma33P]ATP by scintillation counting method relative to control. Format: protein-complex assay.
Assay [18] addresses Mitogen-activated protein kinase kinase kinase 9 (Homo sapiens) (UniProt P80192). The assay can be described thus: Inhibition of recombinant human MLK1 (134 to 414 residues) at 10 uM using casein as substrate measured after 40 mins in presence of [gamma33P]ATP by scintillation counting method relative to control.
Assay [19] concerns the target Mitogen-activated protein kinase kinase kinase kinase 5 (Homo sapiens) (UniProt Q9Y4K4). The assay can be described thus: Inhibition of recombinant full-length human MAP4K5 at 10 uM using myelin basic protein as substrate measured after 40 mins in presence of [gamma33P]ATP by scintillation counting method relative to control.
In assay [20] the target is Serine/threonine-protein kinase B-raf (Homo sapiens) (UniProt P15056). The assay can be described thus: Inhibition of recombinant human BRAF (416 to end residues) at 10 uM using myelin basic protein as substrate after 40 mins in presence of [gamma33P]ATP by scintillation counting method relative to control.
The species entered for assay [21] is Homo sapiens. As to the kind of experiment: Inhibition of recombinant full length human Aurora A I31F mutant at 10 uM using LRRASLG as substrate incubated for 40 mins in presence of [gamma-33P]-ATP by scintillation counting method relative to control.
In assay [22] the target is Histone acetyltransferase p300 (Homo sapiens) (UniProt Q09472). As to the kind of experiment: Displacement of [3H]-acetyl-CoA from human P300 after 60 mins by microbeta counting method.
In assay [23] the target is 3-phosphoinositide-dependent protein kinase 1 (Homo sapiens) (UniProt O15530). The assay can be described thus: Inhibition of recombinant human PDK1 (52 to end residues) at 10 uM using KTFCGTPEYLAPEVRREPRILSEEEQEMFRDFDYIADWC as substrate measured after 40 mins in presence of [gamma33P]ATP by scintillation counting method relative to control.

Calls of active or inactive are those of the source. The calls are words filed in the database; no cut-off is given here.

T1 sequence (Q15561 whole entry, the tested form may be a part): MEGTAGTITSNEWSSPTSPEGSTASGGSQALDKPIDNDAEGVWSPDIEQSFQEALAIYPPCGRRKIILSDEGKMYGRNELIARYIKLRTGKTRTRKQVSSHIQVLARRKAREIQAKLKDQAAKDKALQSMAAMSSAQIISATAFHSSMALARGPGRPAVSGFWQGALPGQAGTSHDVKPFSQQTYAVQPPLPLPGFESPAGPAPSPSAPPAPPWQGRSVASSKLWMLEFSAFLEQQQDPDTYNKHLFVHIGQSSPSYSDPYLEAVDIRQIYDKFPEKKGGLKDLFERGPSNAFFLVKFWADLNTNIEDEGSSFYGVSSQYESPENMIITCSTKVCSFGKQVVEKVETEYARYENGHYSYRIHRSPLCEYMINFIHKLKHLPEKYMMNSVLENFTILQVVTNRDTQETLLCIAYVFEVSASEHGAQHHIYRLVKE
Sequence of Insulin-like growth factor 1 receptor (Homo sapiens) (P08069 31-736 limits assumed): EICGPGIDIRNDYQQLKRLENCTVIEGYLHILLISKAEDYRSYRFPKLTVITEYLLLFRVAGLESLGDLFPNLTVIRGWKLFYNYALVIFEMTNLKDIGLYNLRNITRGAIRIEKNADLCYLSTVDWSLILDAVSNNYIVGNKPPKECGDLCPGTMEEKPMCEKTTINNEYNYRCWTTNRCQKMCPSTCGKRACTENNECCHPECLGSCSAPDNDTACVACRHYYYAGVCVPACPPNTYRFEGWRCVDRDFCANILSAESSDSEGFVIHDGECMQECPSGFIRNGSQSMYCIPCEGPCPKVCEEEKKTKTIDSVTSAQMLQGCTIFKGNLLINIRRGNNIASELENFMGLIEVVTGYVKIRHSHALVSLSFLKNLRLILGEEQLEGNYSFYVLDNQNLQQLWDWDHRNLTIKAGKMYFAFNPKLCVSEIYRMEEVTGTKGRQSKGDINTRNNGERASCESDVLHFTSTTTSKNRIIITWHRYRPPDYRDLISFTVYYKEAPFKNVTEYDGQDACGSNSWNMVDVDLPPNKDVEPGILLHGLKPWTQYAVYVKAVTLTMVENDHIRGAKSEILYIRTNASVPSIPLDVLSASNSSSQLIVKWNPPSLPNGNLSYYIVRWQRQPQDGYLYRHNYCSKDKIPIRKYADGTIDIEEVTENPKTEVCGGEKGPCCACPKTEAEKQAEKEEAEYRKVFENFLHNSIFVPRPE
Sequence of Insulin-like growth factor 1 receptor (Homo sapiens) (P08069 741-1367 limits assumed): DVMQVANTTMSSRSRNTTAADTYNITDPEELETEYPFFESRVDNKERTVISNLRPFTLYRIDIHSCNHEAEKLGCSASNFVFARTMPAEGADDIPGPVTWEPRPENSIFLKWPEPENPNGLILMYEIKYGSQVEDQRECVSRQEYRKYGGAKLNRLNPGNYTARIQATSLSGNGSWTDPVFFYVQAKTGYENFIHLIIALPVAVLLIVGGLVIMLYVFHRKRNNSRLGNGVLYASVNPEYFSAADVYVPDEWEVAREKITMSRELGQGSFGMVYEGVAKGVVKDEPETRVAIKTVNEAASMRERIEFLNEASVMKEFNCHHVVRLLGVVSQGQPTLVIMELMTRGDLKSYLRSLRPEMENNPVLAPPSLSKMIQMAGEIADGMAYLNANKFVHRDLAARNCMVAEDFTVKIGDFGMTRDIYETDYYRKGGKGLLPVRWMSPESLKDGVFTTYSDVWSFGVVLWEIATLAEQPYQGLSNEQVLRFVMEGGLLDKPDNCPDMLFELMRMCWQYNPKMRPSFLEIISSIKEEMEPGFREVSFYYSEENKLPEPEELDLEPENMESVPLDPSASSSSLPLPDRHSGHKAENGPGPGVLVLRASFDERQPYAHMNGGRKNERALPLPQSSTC
Sequence of Serine/threonine-protein kinase STK11 (Homo sapiens) (Q15831 whole entry): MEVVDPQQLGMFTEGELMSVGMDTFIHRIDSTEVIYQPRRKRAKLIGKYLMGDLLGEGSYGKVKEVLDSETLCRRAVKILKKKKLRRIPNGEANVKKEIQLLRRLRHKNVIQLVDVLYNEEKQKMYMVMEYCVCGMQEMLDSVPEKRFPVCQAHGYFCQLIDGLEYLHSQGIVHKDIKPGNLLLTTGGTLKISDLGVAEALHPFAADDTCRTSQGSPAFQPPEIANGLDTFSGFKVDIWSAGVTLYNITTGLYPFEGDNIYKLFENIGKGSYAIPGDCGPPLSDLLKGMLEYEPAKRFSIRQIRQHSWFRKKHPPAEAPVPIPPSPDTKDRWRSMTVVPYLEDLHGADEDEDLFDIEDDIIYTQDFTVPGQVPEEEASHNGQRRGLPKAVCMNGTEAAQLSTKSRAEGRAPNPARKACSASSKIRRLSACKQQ
Sequence of Serine/threonine-protein kinase B-raf (Homo sapiens) (P15056 whole entry): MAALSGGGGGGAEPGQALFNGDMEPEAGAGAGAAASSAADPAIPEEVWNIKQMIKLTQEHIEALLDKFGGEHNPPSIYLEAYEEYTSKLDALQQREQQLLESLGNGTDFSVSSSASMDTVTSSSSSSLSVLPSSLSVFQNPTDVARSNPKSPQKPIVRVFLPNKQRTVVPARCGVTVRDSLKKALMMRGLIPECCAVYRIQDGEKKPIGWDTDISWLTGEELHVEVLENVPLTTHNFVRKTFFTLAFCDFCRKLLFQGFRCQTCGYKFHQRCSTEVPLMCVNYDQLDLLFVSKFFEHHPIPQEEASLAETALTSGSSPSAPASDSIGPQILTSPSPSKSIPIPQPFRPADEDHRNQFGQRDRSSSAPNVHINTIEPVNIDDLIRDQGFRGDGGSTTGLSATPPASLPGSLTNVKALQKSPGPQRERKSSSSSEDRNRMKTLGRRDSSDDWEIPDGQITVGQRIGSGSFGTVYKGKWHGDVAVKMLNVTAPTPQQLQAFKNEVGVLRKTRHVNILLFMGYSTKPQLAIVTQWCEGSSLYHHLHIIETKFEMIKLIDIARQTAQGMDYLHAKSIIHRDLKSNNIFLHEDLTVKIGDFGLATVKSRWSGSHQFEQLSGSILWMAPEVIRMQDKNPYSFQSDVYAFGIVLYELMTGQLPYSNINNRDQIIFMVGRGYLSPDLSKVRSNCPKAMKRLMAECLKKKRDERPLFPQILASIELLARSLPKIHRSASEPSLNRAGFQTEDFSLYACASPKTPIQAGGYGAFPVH
Sequence of Insulin receptor (Homo sapiens) (P06213 28-758 limits assumed): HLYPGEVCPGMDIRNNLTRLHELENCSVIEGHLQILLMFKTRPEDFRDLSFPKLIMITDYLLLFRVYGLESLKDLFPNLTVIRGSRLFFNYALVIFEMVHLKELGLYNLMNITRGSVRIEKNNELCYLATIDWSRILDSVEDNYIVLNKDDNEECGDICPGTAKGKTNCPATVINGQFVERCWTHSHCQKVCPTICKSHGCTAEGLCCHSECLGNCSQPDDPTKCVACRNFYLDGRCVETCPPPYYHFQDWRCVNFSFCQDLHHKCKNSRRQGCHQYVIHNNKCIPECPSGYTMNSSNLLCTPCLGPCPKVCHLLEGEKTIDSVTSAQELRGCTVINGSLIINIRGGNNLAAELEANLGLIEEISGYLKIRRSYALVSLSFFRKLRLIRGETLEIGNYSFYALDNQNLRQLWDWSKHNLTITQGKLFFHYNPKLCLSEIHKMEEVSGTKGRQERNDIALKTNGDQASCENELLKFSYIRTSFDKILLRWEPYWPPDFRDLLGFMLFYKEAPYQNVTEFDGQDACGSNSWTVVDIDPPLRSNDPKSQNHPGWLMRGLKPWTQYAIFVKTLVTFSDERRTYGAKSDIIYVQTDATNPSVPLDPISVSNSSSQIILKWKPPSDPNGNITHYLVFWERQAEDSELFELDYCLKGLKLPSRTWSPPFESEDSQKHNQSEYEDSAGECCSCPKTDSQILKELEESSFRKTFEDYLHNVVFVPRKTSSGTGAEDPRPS
Sequence of Insulin receptor (Homo sapiens) (P06213 763-1382 limits assumed): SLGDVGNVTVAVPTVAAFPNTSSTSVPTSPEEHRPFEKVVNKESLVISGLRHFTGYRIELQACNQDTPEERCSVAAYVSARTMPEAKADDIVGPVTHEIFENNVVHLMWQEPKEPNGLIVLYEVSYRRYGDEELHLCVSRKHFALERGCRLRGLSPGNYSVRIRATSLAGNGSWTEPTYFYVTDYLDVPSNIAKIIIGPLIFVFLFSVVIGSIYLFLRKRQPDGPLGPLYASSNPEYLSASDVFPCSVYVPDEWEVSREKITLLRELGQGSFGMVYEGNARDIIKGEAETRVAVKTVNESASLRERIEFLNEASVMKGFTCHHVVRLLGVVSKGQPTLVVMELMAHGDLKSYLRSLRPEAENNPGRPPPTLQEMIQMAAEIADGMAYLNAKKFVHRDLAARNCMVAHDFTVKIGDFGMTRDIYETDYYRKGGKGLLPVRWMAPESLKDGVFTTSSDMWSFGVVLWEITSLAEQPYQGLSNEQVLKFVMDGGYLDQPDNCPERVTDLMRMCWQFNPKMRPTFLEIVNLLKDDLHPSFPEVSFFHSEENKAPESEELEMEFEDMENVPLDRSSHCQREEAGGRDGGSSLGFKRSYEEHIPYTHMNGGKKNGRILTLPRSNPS
Sequence of 3-phosphoinositide-dependent protein kinase 1 (Homo sapiens) (O15530 whole entry, looked up): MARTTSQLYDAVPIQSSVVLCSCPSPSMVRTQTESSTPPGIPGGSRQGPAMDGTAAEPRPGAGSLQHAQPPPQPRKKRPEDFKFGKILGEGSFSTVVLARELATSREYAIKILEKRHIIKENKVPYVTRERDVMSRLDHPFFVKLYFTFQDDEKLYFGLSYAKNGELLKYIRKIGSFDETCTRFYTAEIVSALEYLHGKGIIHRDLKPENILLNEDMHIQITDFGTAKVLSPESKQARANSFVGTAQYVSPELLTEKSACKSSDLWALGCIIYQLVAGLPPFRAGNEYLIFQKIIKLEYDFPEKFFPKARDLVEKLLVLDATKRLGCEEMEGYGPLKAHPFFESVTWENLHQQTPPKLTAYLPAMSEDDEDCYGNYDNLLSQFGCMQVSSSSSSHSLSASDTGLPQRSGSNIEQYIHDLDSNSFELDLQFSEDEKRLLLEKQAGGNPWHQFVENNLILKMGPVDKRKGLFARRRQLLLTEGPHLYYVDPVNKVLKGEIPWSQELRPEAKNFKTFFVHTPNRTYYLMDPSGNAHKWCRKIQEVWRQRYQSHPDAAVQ

As for `C=CS(=O)(=O)Nc1ccc(Cc2ccc3ccccc3c2)cc1`, the inhibition is 91.6% in assay [1]; -2% in assay [5]; -3% in [6]; 7% in assay [7]; 13% in assay [8]; 17% in assay [9]. Also, the inhibition was 6% in assay [10]; -10% in [11]; 16% in assay [12]; 6% in [13]; 5% in assay [14]; 2% in assay [15]. Moreover, the inhibition in assay [16] is 11%; in assay [17], 21%; in assay [18], 8%; in assay [19], 2%; in [20] it was -8%; in the assay listed under Homo sapiens [21], -10%. The inhibition is -3% in assay [22] and 3% in assay [23]. In assay [2], the IC50 is 197 nM. For the same compound, the inhibition entry (in [3]; in the assay listed under Homo sapiens [4]) was “Active” each time.
